Patent publication US20180104220A1, “IMIDAZOLE COMPOUND” (MEDSHINE DISCOVERY INC., priority 2015, published 2018)
Read-outs that look alike come from different tables or passages of the source.

Biological target: T1, thromboxane synthetase (Rattus norvegicus, UniProt P49430)
T1 construct: Whole blood was collected from the heart of male SD rat after isoflurane anesthesia; from tissue; host or cells: whole blood of male Sprague-Dawley rats
T1 sequence (P49430 1-533): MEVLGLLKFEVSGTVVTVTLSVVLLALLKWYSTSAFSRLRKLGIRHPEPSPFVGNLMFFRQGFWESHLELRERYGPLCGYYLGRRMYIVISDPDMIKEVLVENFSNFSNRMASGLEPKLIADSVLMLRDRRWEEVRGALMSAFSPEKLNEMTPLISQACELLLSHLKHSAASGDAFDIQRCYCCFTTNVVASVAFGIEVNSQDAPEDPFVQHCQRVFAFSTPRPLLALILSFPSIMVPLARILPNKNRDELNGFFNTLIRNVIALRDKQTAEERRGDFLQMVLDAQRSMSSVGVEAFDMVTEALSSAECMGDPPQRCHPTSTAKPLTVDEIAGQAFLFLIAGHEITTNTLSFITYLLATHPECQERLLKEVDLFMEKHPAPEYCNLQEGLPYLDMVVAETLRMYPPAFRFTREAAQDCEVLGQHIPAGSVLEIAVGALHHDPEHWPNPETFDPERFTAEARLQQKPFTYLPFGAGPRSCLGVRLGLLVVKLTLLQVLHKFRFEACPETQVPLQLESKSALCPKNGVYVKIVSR
Test: Release of TXB2 in the in-vitro coagulation process of rats' whole blood
Format: cell-based
Conditions: male SD rat whole blood, 37° C. 30 mins, TXB2 by LC-MS/MS, read-out: IC50 for the release level of TXB2 in the in-vitro coagulation of rats' whole blood (thromboxane synthetase)
Description: Study for the Release of TXB2 in the in-vitro Coagulation Process of Rats' Whole Blood
In the in-vitro coagulation process, thromboxane A2 (TXA2) pathway was activated, resulting in the formation of large amounts of TXA2, which were rapidly metabolized to its stable form thromboxane B2 (TXB2).
The key enzyme of this pathway was thromboxane synthase. The generation of TXA2 could be inhibited by blocking this enzyme with specific inhibitors (tested compounds), and the level of TXB2 was thus decreased.
The activity of tested compound was measured with the IC50 of inhibiting the formation of TBX2.
Male Sprague-Dawley (SD) rats, purchased from Shanghai SLAC Laboratory Animal Co., Ltd.
0.9% normal saline, […] NaOH solution (vehicle), 100 uM thromboxane synthetase inhibitor solution, isoflurane
1. Tested compound was dissolved by normal saline and prepared to required concentration by gradient dilution. 167 uL of prepared solution was added to centrifuge tube.
2. Whole blood was collected from the heart of male SD rat after isoflurane anesthesia, added to centrifuge tube (0.5 mL), shaken up and incubated under 37° C. water bath for 30 mins until complete coagulation.
3. Centrifuge tube was taken out and centrifuged for 5 mins (6000 g, 4° C.) to get serum.
4. Assay the content of TXB2 by LC-MS/MS-AG (API 4000).
By comparison with the vehicle group, TXB2 contents of each sample were normalized to Control % by the formule:
Control %=(TBX2 level in test tube−TBX2 level in negative tube)/TBX2 level in control tube×100
Note: Test tube: solution of tested compound with series concentration
Negative tube: solution of thromboxane synthetase inhibitor at high concentration (100 uM)
Using GraphPad Prism (concentration as X-axis and Control % as Y-axis) to fit the data and calculate IC50.

Oc1cc(-c2ccc(Cn3ccnc3)cc2)on1 [Compound 1, 5-(4-((1H-imidazol-1-yl)methyl)phenyl)isoxazol-3-ol]
IC50 (class symbols): ≤ 25 nM

Oc1cc(-c2ccc(Cn3ccnc3)c(F)c2)on1 [Compound 2, 5-(4-((1H-imidazol-1-yl)methyl)-3-fluorophenyl)isoxazol-3-ol]
IC50 (class symbols): 100 to 250 nM

Oc1cc(-c2ccc(Cn3ccnc3)cc2F)on1 [Compound 3, 5-(4-((1H-imidazol-1-yl)methyl)-2-fluorophenyl)isoxazol-3-ol]
IC50 (class symbols): 50 to 100 nM

Oc1cc(-c2cc(F)c(Cn3ccnc3)cc2F)on1 [Compound 4, 5-(4-((1H-imidazol-1-yl)methyl)-2,5-difluorophenyl)isoxazol-3-ol]
IC50 (class symbols): 25 to 50 nM

Oc1cc(-c2c(F)cc(Cn3ccnc3)cc2F)on1 [Compound 5, 5-(4-((1H-imidazol-1-yl)methyl)-2,6-difluorophenyl)isoxazol-3-ol]
IC50 (class symbols): 50 to 100 nM

Oc1cc(-c2cc(F)c(Cn3ccnc3)c(Cl)c2)on1 [Compound 6, 5-(4-((1H-imidazol-1-yl)methyl)-3-chloro-5-fluorophenyl)-isoxazol-3-ol]
IC50 (class symbols): 25 to 50 nM

Oc1cc(-c2ccc(Cn3ccnc3)cc2Cl)on1 [Compound 7, 5-(4-((1H-imidazol-1-yl)methyl)-2-chlorophenyl)isoxazol-3-ol]
IC50 (class symbols): 50 to 100 nM

Cc1cc(Cn2ccnc2)ccc1-c1cc(O)no1 [Compound 8, 5-(4-((1H-imidazol-1-yl)methyl)-2-methylphenyl)isoxazol-3-ol]
IC50 (class symbols): 50 to 100 nM

COc1cc(Cn2ccnc2)ccc1-c1cc(O)no1 [Compound 9, 5-(4-((1H-imidazol-1-yl)methyl)-2-methoxyphenyl)isoxazol-3-ol]
IC50 (class symbols): ≤ 25 nM

COc1cc(-c2cc(O)no2)ccc1Cn1ccnc1 [Compound 10, 5-(4-((1H-imidazol-1-yl)methyl)-3-methoxyphenyl)isoxazol-3-ol]
IC50 (class symbols): 50 to 100 nM

Oc1cc(-c2ccc(Cn3ccnc3)c(Cl)c2)on1 [Compound 11, 5-(4-((1H-imidazol-1-yl)methyl)-3-chlorophenyl)isoxazol-3-ol]
IC50 (class symbols): 25 to 50 nM

Cc1cc(-c2cc(O)no2)ccc1Cn1ccnc1 [Compound 12, 5-(4-((1H-imidazol-1-yl)methyl)-3-methylphenyl)isoxazol-3-ol]
IC50 (class symbols): 25 to 50 nM

Oc1cc(-c2ccc(Cn3ccnc3)c(Br)c2)on1 [Compound 13, 5-(4-((1H-imidazol-1-yl)methyl)-3-bromophenyl)isoxazol-3-ol]
IC50 (class symbols): 25 to 50 nM

Oc1cc(-c2ccc(Cn3ccnc3)nc2)on1 [Compound 14, 5-(6-((1H-imidazol-1-yl)methyl)pyridin-3-yl)isoxazol-3-ol]
IC50 (class symbols): > 250 nM

Oc1cc(-c2ccc(Cn3ccnc3)c(C3CC3)c2)on1 [Compound 15, 5-(4-((1H-imidazol-1-yl)methyl)-3-cyclopropylphenyl)isoxazol-3-ol]
IC50 (class symbols): 50 to 100 nM

CCc1cc(-c2cc(O)no2)ccc1Cn1ccnc1 [Compound 16, 5-(4-((1H-imidazol-1-yl)methyl)-3-ethylphenyl)isoxazol-3-ol]
IC50 (class symbols): ≤ 25 nM

Oc1cc(-c2cc(F)c(Cn3ccnc3)c(F)c2)on1 [Compound 17, 5-(4-((1H-imidazol-1-yl)methyl)-3,5-difluorophenyl)isoxazol-3-ol]
IC50 (class symbols): ≤ 25 nM

Cc1cc(-c2cc(O)no2)cc(C)c1Cn1ccnc1 [Compound 18, 5-(4-((1H-imidazol-1-yl)methyl)-3,5-dimethylphenyl)isoxazol-3-ol]
IC50 (class symbols): > 250 nM

CC(c1ccc(-c2cc(O)no2)cc1)n1ccnc1 (stereo not drawn) [Compound 20, 5-(4-(1-(1H-imidazol-1-yl)ethyl)phenyl)isoxazol-3-ol]
IC50 (class symbols): ≤ 25 nM

C[C@H](c1ccc(-c2cc(O)no2)cc1)n1ccnc1 [Compound 21, (R)-5-(4-(1-(1H-imidazol-1-yl)ethyl)phenyl)isoxazol-3-ol]
IC50 (class symbols): ≤ 25 nM

C[C@@H](c1ccc(-c2cc(O)no2)cc1)n1ccnc1 [Compound 22, (S)-5-(4-(1-(1H-imidazol-1-yl)ethyl)phenyl)isoxazol-3-ol]
IC50 (class symbols): 50 to 100 nM

CC(C)(c1ccc(-c2cc(O)no2)cc1)n1ccnc1 [Compound 23, 5-(4-(2-(1H-imidazol-1-yl)propan-2-yl)phenyl)isoxazol-3-ol]
IC50 (class symbols): 100 to 250 nM

Oc1cc(-c2cccc(Cn3ccnc3)c2)on1 [Compound 24, 5-(3-((1H-imidazol-1-yl)methyl)phenyl)isoxazol-3-ol]
IC50 (class symbols): > 250 nM

Oc1cc(Cc2ccc(Cn3ccnc3)cc2)on1 [Compound 25, 5-(4-(2-(1H-imidazol-1-yl)methyl)benzyl)isoxazol-3-ol]
IC50 (class symbols): > 250 nM

Oc1cc(Cc2cccc(Cn3ccnc3)c2)on1 [Compound 26, 5-(3-((1H-imidazol-1-yl)methyl)benzyl)isoxazol-3-ol]
IC50 (class symbols): > 250 nM

Oc1nccc(-c2ccc(Cn3ccnc3)cc2)c1F [Compound 27, 4-(4-((1H-imidazol-1-yl)methyl)phenyl)-3-fluoropyridin-2-ol]
IC50 (class symbols): > 250 nM

Oc1c(F)ccc(-c2ccc(Cn3ccnc3)cc2)c1F [Compound 28, 4′-((1H-imidazol-1-yl)methyl)-2,4-difluoro-[1,1′-biphenyl]-3-ol]
IC50 (class symbols): 100 to 250 nM

Oc1cc(-c2ccc(Cn3ccnc3)cc2)sn1 [Compound 29, 5-(4-((1H-imidazol-1-yl)methyl)phenyl)isothiazol-3-ol]
IC50 (class symbols): > 250 nM

Cc1c(O)noc1-c1ccc(Cn2ccnc2)cc1 [Compound 30, 5-(4-((1H-imidazol-1-yl)methyl)phenyl)-4-methylisoxazol-3-ol]
IC50 (class symbols): > 250 nM

Oc1cc(-c2ccc(Cn3ccnc3)cc2)[nH]n1 [Compound 31, 5-(4-((1H-imidazol-1-yl)methyl)phenyl)-1H-pyrazol-3-ol]
IC50 (class symbols): > 250 nM

Oc1cc(CCCCn2ccnc2)on1 [Compound 32, 5-(4-(1H-imidazol-1-yl)butyl)isoxazol-3-ol]
IC50 (class symbols): > 250 nM

Oc1cc(CCCCCn2ccnc2)on1 [Compound 33, 5-(5-(1H-imidazol-1-yl)pentyl)isoxazol-3-ol]
IC50 (class symbols): > 250 nM

Oc1cc([C@H]2CC[C@H](Cn3ccnc3)CC2)on1 [Compound 34, 5-(trans-4-((1H-imidazol-1-yl)methyl)cyclohexyl)isoxazol-3-ol]
IC50 (class symbols): 25 to 50 nM

Oc1cc([C@H]2CC[C@@H](Cn3ccnc3)CC2)on1 [Compound 35, 5-(cis-4-((1H-imidazol-1-yl)methyl)cyclohexyl)isoxazol-3-ol]
IC50 (class symbols): 50 to 100 nM

Oc1nccc(C2=CCC(Cn3ccnc3)CC2)c1F (stereo not drawn) [Compound 36, 4-(4-((1H-imidazol-1-yl)methyl)cyclohex-1-en-1-yl)-3-fluoropyridin-2-ol]
IC50 (class symbols): 100 to 250 nM

O=C(O)/C=C/c1ccc(Cn2ccnc2)cc1 [Ozagrel, reference compound]
IC50 (numeric value): 120 nM
